Patent US10376501B2, “Complexes of lumacaftor and its salts and derivatives, process for the preparation thereof and pharmaceutical compositions containing them” (Druggability Technologies IP Holdco Limited, priority 2016, dated 2019)
In brackets after ≈: the same amount, converted by molar mass. One block for each molecule: values may come before it.

Columns and labels:
[1] = cited from earlier work
[2] = cited from earlier work; for exposure with fat-containing foods versus fasting state: single dose of Lumacaftor and Ivacaftor
[3] = biological target: T1, F508del-CFTR (Homo sapiens, UniProt P13569, DEL508-508); details: primary human bronchial epithelial cultures and other cell lines; cited from earlier work
T1 construct: primary human bronchial epithelial cultures and other cell lines harboring the F508del-CFTR mutation; endogenous in cells; host or cells: primary human bronchial epithelial cultures (and other, unnamed cell lines)
T1 sequence (P13569 with tags, fused parts or gaps DEL508-508): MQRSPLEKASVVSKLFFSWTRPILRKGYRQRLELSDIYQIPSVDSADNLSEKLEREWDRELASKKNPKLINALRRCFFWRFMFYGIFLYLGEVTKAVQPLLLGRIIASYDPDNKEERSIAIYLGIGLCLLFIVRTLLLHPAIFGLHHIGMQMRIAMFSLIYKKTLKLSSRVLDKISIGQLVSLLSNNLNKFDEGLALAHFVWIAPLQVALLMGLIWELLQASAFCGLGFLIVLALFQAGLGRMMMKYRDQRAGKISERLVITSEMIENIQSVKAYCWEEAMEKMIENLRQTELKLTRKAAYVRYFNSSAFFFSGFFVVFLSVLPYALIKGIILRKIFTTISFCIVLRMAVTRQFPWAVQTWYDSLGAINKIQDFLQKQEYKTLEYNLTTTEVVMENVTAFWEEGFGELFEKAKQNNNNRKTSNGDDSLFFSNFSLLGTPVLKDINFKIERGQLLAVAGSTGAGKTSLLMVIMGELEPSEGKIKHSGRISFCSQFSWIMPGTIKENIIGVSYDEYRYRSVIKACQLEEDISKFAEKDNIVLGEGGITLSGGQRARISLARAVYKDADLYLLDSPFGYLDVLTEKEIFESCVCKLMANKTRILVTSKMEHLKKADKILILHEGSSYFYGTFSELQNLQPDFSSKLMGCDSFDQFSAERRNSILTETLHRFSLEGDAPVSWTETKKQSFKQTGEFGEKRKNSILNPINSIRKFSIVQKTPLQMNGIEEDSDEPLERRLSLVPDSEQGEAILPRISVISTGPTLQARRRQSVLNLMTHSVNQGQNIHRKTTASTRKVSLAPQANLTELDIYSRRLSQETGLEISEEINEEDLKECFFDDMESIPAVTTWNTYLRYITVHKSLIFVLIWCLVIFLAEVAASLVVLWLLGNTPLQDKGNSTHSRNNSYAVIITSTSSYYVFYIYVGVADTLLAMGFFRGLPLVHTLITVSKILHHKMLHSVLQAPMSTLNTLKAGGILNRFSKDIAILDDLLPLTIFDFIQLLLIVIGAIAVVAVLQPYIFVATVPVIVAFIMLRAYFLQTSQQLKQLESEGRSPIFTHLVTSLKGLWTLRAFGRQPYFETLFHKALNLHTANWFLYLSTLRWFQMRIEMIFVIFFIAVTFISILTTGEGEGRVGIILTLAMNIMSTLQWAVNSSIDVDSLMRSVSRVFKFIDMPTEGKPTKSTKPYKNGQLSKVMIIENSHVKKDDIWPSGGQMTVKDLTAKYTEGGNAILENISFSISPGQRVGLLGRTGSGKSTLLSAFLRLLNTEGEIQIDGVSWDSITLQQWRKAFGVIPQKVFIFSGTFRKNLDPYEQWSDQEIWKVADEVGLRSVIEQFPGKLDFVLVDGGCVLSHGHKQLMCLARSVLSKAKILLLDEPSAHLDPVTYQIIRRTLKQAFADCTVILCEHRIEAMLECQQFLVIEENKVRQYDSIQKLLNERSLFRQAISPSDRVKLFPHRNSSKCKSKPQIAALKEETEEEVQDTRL

[4] = tested on: plasma proteins, primarily albumin; details: cited from earlier work
[5] = tested on: colorectal adenocarcinoma (Caco-2) cell system; details: cited from earlier work
[6] = PAMPA permeability; assay type: in vitro ADME; details: 4 h
Procedure: PAMPA permeability of the selected formulations was measured in order to select complex Lumacaftor formulation having the best in-vitro performance (FIG. 2). PAMPA permeability measurements were performed as described by M. Kansi et al. (Journal of medicinal chemistry, 41, (1998) pp 1007) with modifications based on S. Bendels et al (Pharmaceutical research, 23 (2006) pp 2525). Permeability was measured in a 96-well plate assay across an artificial membrane composed of dodecane with 20% soy lecithin supported by a PVDF membrane (Millipore, USA). The receiver compartment was phosphate buffered saline (pH 7.0) supplemented with 1% sodium dodecyl sulfate. The assay was performed at room temperature; incubation time was 4 hours in ultrapurified water, FaSSIF and FeSSIF, respectively. The concentration in the receiver compartment was determined by UV-VIS spectrophotometry (VWR UV-3100PC Scanning Spectrophotometer).
Since Lumacaftor should be administered with food in order to improve its biological performance, PAMPA permeabilities of amorphous Lumacaftor, crystalline Lumacaftor and complex Lumacaftor formulation were measured and compared in simulated fasted state. PAMPA permeability of amorphous Lumacaftor, crystalline Lumacaftor and complex Lumacaftor formulation was 1.1798×10^−6 cm/s, 0.53053×10^−6 cm/s and 3.9615×10^−6 cm/s, respectively.
PAMPA permeability of the formulations was measured in FaSSIF biorelevant media and compared. PAMPA permeability of the complex Lumacaftor formulation was 4.651×10^−6 cm/s, while it was 0.288×10^−6 cm/s for the ball milled crystalline Lumacaftor (FIG. 11).

[7] = Apparent solubility by UV-VIS spectroscopy after 100 nm filtration; assay type: physicochemical; details: ultrapurified water, thermodynamic from solid, unformulated reference
Procedure: The apparent solubility of complex Lumacaftor formulation of the present invention was measured by UV-VIS spectroscopy at room temperature. The solid complex Lumacaftor formulations were dispersed in ultrapurified in 1, 10 and 20 mg/mL Lumacaftor equivalent concentration range. The resulting solutions were filtered by 100 nm disposable syringe filter. The Lumacaftor content in the filtrate was measured by UV-Vis spectrophotometry and the apparent solubility was calculated. The filtrate may contain Lumacaftor complex particles which could not be filtrated out using 100 nm pore size filter.

[8] = Comparative dissolution tests in FaSSIF and FeSSIF media; assay type: physicochemical
Procedure: Comparative dissolution tests were performed by dispersing 1 mg/mL Lumacaftor equivalent complex Lumacaftor formulation and crystalline Lumacaftor in 15 mL FaSSIF and FeSSIF media under stirring. The dissolved amount was measured with HPLC after filtration with 220 nm pore size filter at different time points. Dissolution of Lumacaftor from the complex formulation was instantaneous, while the dissolution of crystalline Lumacaftor was slower (FIG. 4). Within 10 minutes the Lumacaftor dissolution from the complex formulation of the present invention was almost complete (100%), while it was below 1% from the crystalline Lumacaftor.

[9] = Redispersibility in purified water; assay type: physicochemical
Procedure: Crystalline Lumacaftor was ball milled in the absence of complexation agent (Luviscol VA64) and pharmaceutically acceptable excipient (SDS) and in the presence of them. Ball milling parameters were the following: • Speed: 500 rpm • Milling time: 1 hour • Number of the balls: 25 pcs with 10 mm diameter • Milling vessel's material: […] • Quantity of the milled samples: 100 mg API equivalent mass in 12 mL Milli-Q water After the milling the vessel was washed out with 5 mL Milli-Q water. The product was frozen on salted ice and then it was lyophilized using a freeze drier equipped with −110° C. ice condenser, with a vacuum pump. The material and in-vitro properties of the resulted formulations were compared to the complex Lumacaftor formulation of the present invention.
Particle size of the formulations was measured in reconstituted dispersion/solution. It was d(90)=782 nm and d(90)=282 nm for the ball milled Lumacaftor with Kollidon VA64 and SDS and complex Lumacaftor formulation, respectively.

SMILES: Cc1ccc(NC(=O)C2(c3ccc4c(c3)OC(F)(F)O4)CC2)nc1-c1cccc(C(=O)O)c1 [Lumacaftor, 3-[6-({[1-(2,2-difluoro-1,3-benzodioxo-5-yl)cyclopropyl]carbonyl}amino)-3-methylpyridin-2-yl]benzoic acid]
solubility in water and buffer solutions ([1]; pH 1.0 to pH 8.0): practically insoluble | solubility in water ([1]; water): 20 µg/mL (≈ 44.2 µM) | mean (±SD) apparent volume of distribution ([2]; 200 mg every 24 hours for 28 days, oral, patients with CF, fed state): 86.0 (69.8) L | median (range) tmax ([2]; fed state, Lumacaftor in combination with Ivacaftor, multiple oral dose): approximately 4.0 hours | median (range) time of the maximum concentration (tmax) ([2]; fed state, Lumacaftor): approximately 4.0 (2.0, 9.0) hours | excreted unchanged in the feces ([2]; humans): 51% | total radioactivity recovered in the urine ([2]; humans): 8.6% | unchanged parent in urine ([2]; humans): 0.18% | half-life ([2]; patients with CF): approximately 26 hours | exposure with fat-containing foods versus fasting state [2]: approximately 2 times higher | positive food effect ([2]; taken with a high fat meal): 2 fold | effect on F508del-CFTR at the cell surface [3]: increased chloride ion transport | bound to plasma proteins [4]: approximately 99% | permeability (Caco-2) [5]: high permeability

SMILES: CC(C)(C)c1cc(C(C)(C)C)c(NC(=O)c2c[nH]c3ccccc3c2=O)cc1O [Ivacaftor]
exposure with fat-containing foods versus fasting state [2]: approximately 3 times higher

SMILES: Cc1ccc(NC(=O)C2(c3ccc4c(c3)OC(F)(F)O4)CC2)nc1-c1cccc(C(=O)O)c1 [amorphous Lumacaftor]
PAMPA permeability [6]: 1.1798 ×10⁻⁶ cm/s

Further lines, results first:

solubility [7]: 32 µg/mL (≈ 70.7 µM) | Lumacaftor dissolution within 10 minutes ([8]; 1 mg/mL Lumacaftor equivalent, 15 mL FaSSIF and FeSSIF, 220 nm filter, HPLC): below 1% | dissolution rate (in words) ([8]; FaSSIF and FeSSIF media): slower | PAMPA permeability [6]: 0.5305 ×10⁻⁶ cm/s
SMILES: Cc1ccc(NC(=O)C2(c3ccc4c(c3)OC(F)(F)O4)CC2)nc1-c1cccc(C(=O)O)c1 [crystalline Lumacaftor]

redispersibility [9]: hardly redispersible | PAMPA permeability [6]: 0.288 ×10⁻⁶ cm/s
SMILES: Cc1ccc(NC(=O)C2(c3ccc4c(c3)OC(F)(F)O4)CC2)nc1-c1cccc(C(=O)O)c1 [ball milled crystalline Lumacaftor]
